Source: US20260297542A1, “HERBICIDE RESISTANT PLANTS” (SYNGENTA CROP PROTECTION AG, priority 2023, published 2026)
Positions count from the first letter of the chain named.

Columns and labels:
Experiment in all cases: E. coli hemG growth inhibition by herbicide, AtPPO1 variant
Format in all cases: cell-based
Settings in all cases: read-out: percentage growth inhibition
AtPPO1 P418M = molecular target: T1, AtPPO1 P418M (Arabidopsis thaliana, UniProt P55826, P418M)
T1 construct: expressed in transfected cells; host or cells: E. coli BL21(DE3) hemG (pET24a, T7 promoter)
T1 sequence (P55826 35-537 P418M): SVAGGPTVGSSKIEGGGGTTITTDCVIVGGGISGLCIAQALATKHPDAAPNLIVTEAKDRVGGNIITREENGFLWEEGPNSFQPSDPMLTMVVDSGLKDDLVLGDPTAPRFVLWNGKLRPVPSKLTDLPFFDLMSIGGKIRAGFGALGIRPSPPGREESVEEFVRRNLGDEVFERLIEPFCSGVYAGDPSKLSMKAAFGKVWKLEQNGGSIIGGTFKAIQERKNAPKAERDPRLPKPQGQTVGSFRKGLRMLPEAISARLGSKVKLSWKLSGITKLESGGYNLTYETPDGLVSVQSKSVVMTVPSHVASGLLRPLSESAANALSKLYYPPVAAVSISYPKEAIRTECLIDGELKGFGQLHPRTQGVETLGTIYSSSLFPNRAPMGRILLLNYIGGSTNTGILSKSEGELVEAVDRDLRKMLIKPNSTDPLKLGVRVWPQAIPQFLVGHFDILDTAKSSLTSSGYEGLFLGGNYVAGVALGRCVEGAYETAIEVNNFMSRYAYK
Procedure, shortened: (§1)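 Read-out is OD600 at 24 h post inoculation, converted to percent growth inhibition relative to DMSO. The hemG-deleted BL21(DE3) host relied on the plasmid-borne AtPPO1 variant, induced with 0.1 mM IPTG, with 6.25 ppm herbicide 0 or E or 0.78 ppm herbicide B present at 37° C.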

AtPPO1 E111D = molecular target: T2, AtPPO1 E111D (Arabidopsis thaliana, UniProt P55826, E111D)
T2 construct: expressed in transfected cells; host or cells: E. coli BL21(DE3) hemG (hemG replaced by CmR), pET24a plasmid
T2 sequence (P55826 35-537 E111D): T1 sequence (P55826 35-537 P418M) with E77D, M384P
Procedure, shortened: as §1

AtPPO1 L479M = molecular target: T3, AtPPO1 L479M (Arabidopsis thaliana, UniProt P55826, L479M)
T3 construct: expressed in transfected cells; host or cells: E. coli BL21(DE3) hemG, pET24a plasmid
T3 sequence (P55826 35-537 L479M): T1 sequence (P55826 35-537 P418M) with M384P, L445M
Procedure, shortened: as §1

AtPPO1 R284G = molecular target: T4, AtPPO1 R284G (Arabidopsis thaliana, UniProt P55826, R284G)
T4 construct: expressed in transfected cells; host or cells: E. coli BL21(DE3) hemG (pET24a, T7 promoter)
T4 sequence (P55826 35-537 R284G): T1 sequence (P55826 35-537 P418M) with R250G, M384P
Procedure, shortened: as §1

| SMILES | inhibition at 6.25 ppm (AtPPO1 P418M) [%] | inhibition at 6.25 ppm (AtPPO1 E111D) [%] | inhibition at 6.25 ppm (AtPPO1 L479M) [%] | inhibition at 6.25 ppm (AtPPO1 R284G) [%] | inhibition at 0.78 ppm (AtPPO1 P418M) [%] | inhibition at 0.78 ppm (AtPPO1 E111D) [%] | inhibition at 0.78 ppm (AtPPO1 L479M) [%] | inhibition at 0.78 ppm (AtPPO1 R284G) [%] |
| --- | --- | --- | --- | --- | --- | --- | --- | --- |
| CCOC(=O)[C@]1(C)CC(c2cc(-n3c(=O)n(C)c(=S)n(C)c3=O)c(F)cc2Cl)=NO1 [Herbicide D, ethyl (5S)-3-[2-chloro-5-(3,5-dimethyl-2,6-dioxo-4-thioxo-1,3,5-triazinan-1-yl)-4-fluoro-phenyl]-5-methyl-4H-isoxazole-5-carboxylate] | 25 | 30 | 4 | 37 | – | – | – | – |
| C#CCN1C(=O)C(F)(F)Oc2cc(F)c(-n3c(=O)n(C)c(=S)n(C)c3=O)cc21 [Herbicide B, trifludimoxazin] | – | – | – | – | 12 | 23 | 29 | 35 |
| CC(C)N(C)S(=O)(=O)NC(=O)c1cc(-n2c(=O)cc(C(F)(F)F)n(C)c2=O)c(F)cc1Cl [Herbicide E, saflufenacil] | 64 | 69 | 28 | 60 | – | – | – | – |
